Data from patent publication US5098900A, “3(2H)pyridazinone, process for its preparation and anti-allergic agent containing it” (Nissan Chemical Industries Ltd., priority 1984, dated 1992).

Tests used:
[1] = tested on: LTC4; assay: LTC4 antagonism in isolated guinea-pig trachea (LTC4-induced contraction); type: cell-based; conditions: 5 min, test compound 10^-5 g/ml, LTC4 2×10^-8 g/ml, guinea-pig trachea; for inhibition at 10 µg/mL: Cavia porcellus, read-out: LTC4 antagonism
Procedure: (§1) (ii) LTC4 and LTD4 antagonisms in guinea-pig trachea
(§2) Antagonism for LTC4 and LTD4 were determined in isolated guinea-pig trachea prepared as spiral strip. 10 Tracheal preparations were suspended under 1 g tension in […] and they were incubated for 1 hr prior to use. Contractile responses to LTC4 (2×10^-8 g/ml) and LTD4 (2×10^-8 g/ml) were obtained after the maximal response to histamine (10^-4 M). Test compounds dissolved in 100% dimethyl sulfoxide were added to the organ baths (final concentration of 10^-5 g/ml) 5 min prior to LTC4 and LTD4 addition, and then contractile responses to LTC4 and LTD4 were compared with those of control which was obtained from a paired trachea in the absence of test compounds. LTC4 - and LTD4 -induced contractions were expressed as a percentage of the maximal response to histamine. The antagonism was determined as follows: Antagonism (%)=(1.0-% contraction in test/% contraction in control)×100

[2] = tested on: antigen-induced anaphylactic bronchoconstriction; assay: Effect on anaphylactic bronchoconstriction in passively sensitized guinea-pig; type: in vivo; conditions: 2 mg/kg, i.v.
Procedure: (iii) Effect on anaphylactic bronchoconstriction in passively sensitized guinea-pig
Male guinea-pigs (350-450 g) were passively sensitized with intravenous (i.v.) injection of 0.125 ml rabbit anti-EA serum (Cappel Laboratories) 1 day preceding the experiment. […] The right jugular vein was cannulated for the administration of the all agents and trachea was cannulated to record total pulmonary resistance. Guinea-pigs were artificially ventilated by a small animal respirator (Shinano, Model SN-480-7) set at a stroke volume of 4-5 ml and a rate of 50 breaths per min. […] The increase in air overflow volume was expressed as a percentage of the maximum bronchoconstriction obtained by clamping off the trachea. Following surgical preparation, the animals were pretreated with indomethacin (1.0 mg/kg, 10 min), pyrilamine (2 mg/kg, 6 min) and propranolol (0.1 mg/kg, 5 min) prior to the EA challenge (0.1 or 10 mg/kg). All test compounds, 2 mg/kg in 3% Tween 80 or 3% PEG-400, were administered 1 min before the EA challenge. Inhibition (%) of bronchoconstriction was determined as follows Inhibition (%)=(1.0% -maximum bronchoconstriction in test/% maximum bronchoconstriction in control) ×100.
In the Table, the dose of EA was 10 mg/kg, and each compound was dissolved or suspended in 3% Tween 80.
In the Table, the dose of EA was 0.1 mg/kg.
*: PEG represents polyethylene glycol400.

[3] = tested on: LTD4; assay: LTD4 antagonism in isolated guinea-pig trachea (LTD4-induced contraction); type: cell-based; conditions: Cavia porcellus, 5 min, test compound 10^-5 g/ml, LTD4 2×10^-8 g/ml
Procedure: as §1, §2

[4] = tested on: ddY strain male; assay: Acute toxicity test, method-(2), intraperitoneal injection; type: in vivo, ddY strain male (4 weeks old); conditions: 7 days
Procedure: The lethal ratio was determined in ddY strain male (4 weeks old) at 7 days after the intraperitoneal injection of test compounds.

[5] = tested on: SRS-A; assay: SRS-A antagonism in guinea-pig ileum (SRS-A-induced contraction); type: cell-based; conditions: 1 min, test compound 5×10^-7 g/ml, isolated guinea-pig ileum; for inhibition at 0.5 µg/mL: Cavia porcellus
Procedure: (i) SRS-A antagonism in quinea-pig ileum
SRS-A antagonism was determined against the contraction induced by SRS-A in isolated guinea-pig ileum. The SRS-A was prepared in accordance with the method of Brocklehurst (J. Physiol., 151, 416, 1960) and Kohno and Parker (J. Immunol., 125, 446, 1980). Adult male guinea-pigs (200-250 g) were sensitized with chick egg albumin (EA), 100 mg subcutaneously and 100 mg intraperitoneally. Three weeks later the animals were killed by a blow on the head and lungs were perfused free of blood with Tyrode solution passed through the right ventricle. Isolated lungs were chopped into pieces (1 mm^3) by a scissors in Tyrode solution and filtrated with gauze, and then 1.0-1.3 g of chopped lung fragments were distributed into individual tubes (9.7 ml of Tyrode solution/tube). EA solution (0.3 ml) at a 3×10^-4 g/ml final concentration was added to the tubes and incubated for 20 min at 37° C., and then the supernatant was used for the SRS-A antagonism.
Assay for SRS-A antagonism was performed as follows: Ileum preparations isolated from male guinea-pig (300-400 g) were suspended under 0.5 g tension in organ baths (5 ml) containing Tyrode solution maintained at 30° C. and gassed with 95% O2 +5% CO2. After the repeated responses to histamine (10^-7 g/ml) was established, the contractile response to SRS-A (0.5 ml) was carried out in the presence of 10^-6 M atropine and 10^-6 M pyrilamine. Test compounds dissolved in 100% dimethyl sulfoxide were added to the organ baths (final concentration of 5×10^-7 g/ml) 1 min prior to the SRS-A addition, and SRS-A-induced contractions were compared with those of control (SRS-A-induced contraction before the treatment). The SRS-A antagonism (%) =[1.0 - (SRS-A-induced contraction in test compound)/control]×100

[6] = tested on: LTD4; assay: Effect on bronchoconstriction induced by intravenous administration of LTD4; type: in vivo, guinea-pig; conditions: 2 mg/kg, i.v., in Tween 80; LTD4 2 μg/kg i.v.
Procedure: (iv) Effect on bronchoconstriction induced by intravenous (i.v.) administration of LTD4
Bronchoconstrictions induced by i.v. administration of LTD4 in guinea-pigs (350-450 g) were measured as described in anaphylactic bronchoconstriction. Guinea-pigs were anaesthetized with urethane (1.5 g/kg) and the trachea was cannulated to record total pulmonary resistance. The right jugular vein was cannulated for the administration of the all agents. The guinea-pigs were artificially ventilated by a small respirator set at a stroke volume of 5 ml and a rate of 50 breaths per min. LTD4 (2 μg/kg)-induced bronchoconstriction was shown by the increase in air overflow volume. After the response to histamine (5 μg/kg) was checked, the first response to LTD4 was obtain-d as control. […] Inhibition (%) of the bronchoconstriction was determined as follows: Inhibition (%) =(1.0 -peak value in the second response/peak value in the first response)×100.

SMILES	inhibition at 10 µg/mL [1]	inhibition at 0.5 µg/mL [5]	further results
CCOc1cccc(CNc2cnn(C(C)C)c(=O)c2Cl)c1 [Compound No. 89]	89%		Inhibition of anaphylactic bronchoconstriction ([2]; EA 0.1 mg/kg, PEG (polyethylene glycol 400)): 79%; inhibition at 10 µg/mL [3]: 95%; Lethal ratio (Death number/Experimental number) ([4]; 200 mg/kg): 0/2; Lethal ratio (Death number/Experimental number) ([4]; 400 mg/kg): 0/1
CCOc1cc(CNc2cnn(C(C)C)c(=O)c2Cl)ccc1OC [compound 103]	100%		Inhibition of anaphylactic bronchoconstriction ([2]; EA 0.1 mg/kg, Tween 80): 76%; inhibition at 10 µg/mL [3]: 100%; Lethal ratio (Death number/Experimental number) ([4]; 200 mg/kg): 0/2
CSc1ccc(CNc2cnn(C(C)(C)C)c(=O)c2Cl)cc1 [compound 21]	36%	77%	
COc1ccc(CNc2cnn(C(C)(C)C)c(=O)c2Cl)cc1C [Compound No. 12]	67%	73%	
COc1ccc(CNc2cnn(C(C)(C)C)c(=O)c2Cl)cc1 [Compound No. 9]		72%	Inhibition of anaphylactic bronchoconstriction ([2]; EA 10 mg/kg, 3% Tween 80): 35%; Inhibition of LTD4-induced bronchoconstriction [6]: 38%
COc1ccc(CNc2cnn(C(C)(C)C)c(=O)c2Cl)cc1OC [Compound No. 16]	96%	55%	
CN1CCN(C(=O)c2ccc(CNc3cnn(C(C)(C)C)c(=O)c3Cl)cc2)CC1 [compound 41]		15%	
CC(C)(C)n1ncc(NCc2ccc(CN3CCOCC3)cc2)c(Cl)c1=O [compound 33]	17%	41%	
CCN1CCN(Cc2ccc(CNc3cnn(C(C)(C)C)c(=O)c3Cl)cc2)CC1 [compound 35]		10%	LTC4 antagonism [1]: 37%
CC(C)c1ccc(CNc2cnn(C(C)(C)C)c(=O)c2Cl)cc1 [Compound No. 5]	67%	74%	
COCCNC(=O)c1ccc(CNc2cnn(C(C)(C)C)c(=O)c2Cl)cc1 [compound 55]	14%	12%	
CCCOc1ccc(CNc2cnn(C(C)(C)C)c(=O)c2Cl)cc1 [compound 11]	25%	74%	Inhibition of anaphylactic bronchoconstriction ([2]; EA 10 mg/kg, 3% Tween 80): 21%
COc1ccccc1CNc1cnn(C(C)C)c(=O)c1Cl [compound 86]	100%		Inhibition of anaphylactic bronchoconstriction ([2]; EA 0.1 mg/kg, Tween 80): 29%; inhibition at 10 µg/mL [3]: 87%; Lethal ratio (Death number/Experimental number) ([4]; 200 mg/kg): 0/2; Lethal ratio (Death number/Experimental number) ([4]; 400 mg/kg): 0/1
CC(C)(C)n1ncc(NCc2ccc(C(=O)O)cc2)c(Cl)c1=O [Compound No. 23, 4-chloro-5-(4-carboxybenzylamino)-2-t-butyl-3(2H)pyridazinone]		18%	
CCOc1cccc(CNc2cnn(CC)c(=O)c2Cl)c1 [compound 88]	81%		Inhibition of anaphylactic bronchoconstriction ([2]; EA 0.1 mg/kg, Tween 80): 45%; inhibition at 10 µg/mL [3]: 95%; Lethal ratio (Death number/Experimental number) ([4]; 200 mg/kg): 0/2; Lethal ratio (Death number/Experimental number) ([4]; 400 mg/kg): 0/2
CN1CCN(Cc2ccc(CNc3cnn(C(C)(C)C)c(=O)c3Cl)cc2)CC1 [compound 34]		19%	
CCn1ncc(NCc2cccc(C)c2)c(Cl)c1=O [compound 75]	100%		Inhibition of anaphylactic bronchoconstriction ([2]; EA 0.1 mg/kg, Tween 80): 57%; inhibition at 10 µg/mL [3]: 90%; Lethal ratio (Death number/Experimental number) ([4]; 100 mg/kg): 0/2
CCN(CC)C(=O)c1ccc(CNc2cnn(C(C)(C)C)c(=O)c2Cl)cc1 [compound 38]		31%	
CCCOc1cc(CNc2cnn(C(C)C)c(=O)c2Cl)ccc1OC [Compound No. 106, 4-Chloro-5-(3-n-propoxy-4-methoxybenzylamino)-2-i-propyl-3(2H)pyridazinone]	100%		Inhibition of anaphylactic bronchoconstriction ([2]; EA 0.1 mg/kg, Tween 80): 65%; inhibition at 10 µg/mL [3]: 100%; Lethal ratio (Death number/Experimental number) ([4]; 200 mg/kg): 0/2; Lethal ratio (Death number/Experimental number) ([4]; 400 mg/kg): 0/1
CC(C)(C)n1ncc(NCc2ccc3c(c2)OCO3)c(Cl)c1=O [compound 18]		74%	
CC(C)(C)n1ncc(NCc2ccccc2)c(Cl)c1=O [Compound No. 1]		14%	Inhibition of LTD4-induced bronchoconstriction [6]: 23%
Cc1cccc(CNc2cnn(C(C)(C)C)c(=O)c2Cl)c1 [Compound No. 2]	84%	47%	Inhibition of anaphylactic bronchoconstriction ([2]; EA 10 mg/kg, 3% Tween 80): 21%
CC(C)(C)n1ncc(NCc2ccc(N3CCOCC3)cc2)c(Cl)c1=O [compound 30]	13%	53%	
CC(C)(C)n1ncc(NCc2ccc(Cl)cc2)c(Cl)c1=O [compound 22]	20%	76%	Inhibition of anaphylactic bronchoconstriction ([2]; EA 10 mg/kg, 3% Tween 80): 23%
CCOC(=O)c1ccc(CNc2cnn(C(C)(C)C)c(=O)c2Cl)cc1 [Compound No. 52]		72%	Inhibition of anaphylactic bronchoconstriction ([2]; EA 10 mg/kg, 3% Tween 80): 30%
CCCOc1cc(CNc2cnn(CC)c(=O)c2Cl)ccc1OC [Compound No. 105]	100%		Inhibition of anaphylactic bronchoconstriction ([2]; EA 0.1 mg/kg, Tween 80): 29%; inhibition at 10 µg/mL [3]: 100%; Lethal ratio (Death number/Experimental number) ([4]; 100 mg/kg): 0/2
CCN1CCN(C(=O)c2ccc(CNc3cnn(C(C)(C)C)c(=O)c3Cl)cc2)CC1 [compound 42]		14%	
CCN(CC)Cc1ccc(CNc2cnn(C(C)(C)C)c(=O)c2Cl)cc1 [compound 32]	20%	18%	
Cc1ccc(CNc2cnn(C(C)(C)C)c(=O)c2Cl)cc1 [Compound No. 3]	42%	64%	Inhibition of LTD4-induced bronchoconstriction [6]: 60.6%; inhibition at 10 µg/mL [3]: 50%
CN(C)c1ccc(CNc2cnn(C(C)(C)C)c(=O)c2Cl)cc1 [Compound No. 25, 4-Chloro-5-(4-dimethylaminobenzylamino)-2-t-butyl-3(2H)-pyridazinone]			SRS-A antagonism [5]: 81%
